Measurements published in paper PMC5983617, “Hypouricemic Effect of 2,5-Dihydroxyacetophenone, a Computational Screened Bioactive Compound from Ganoderma applanatum, on Hyperuricemic Mice” (International Journal of Molecular Sciences, 2018).

Target: T1, XOD (xanthine oxidase) (Bos taurus, UniProt P80457)
T1 construct: gene XDH; oxidase form
Assay: xanthine oxidation, absorbance at […] nm, microplate reader
Assay type: biochemical

T1 sequence (P80457 2-1332): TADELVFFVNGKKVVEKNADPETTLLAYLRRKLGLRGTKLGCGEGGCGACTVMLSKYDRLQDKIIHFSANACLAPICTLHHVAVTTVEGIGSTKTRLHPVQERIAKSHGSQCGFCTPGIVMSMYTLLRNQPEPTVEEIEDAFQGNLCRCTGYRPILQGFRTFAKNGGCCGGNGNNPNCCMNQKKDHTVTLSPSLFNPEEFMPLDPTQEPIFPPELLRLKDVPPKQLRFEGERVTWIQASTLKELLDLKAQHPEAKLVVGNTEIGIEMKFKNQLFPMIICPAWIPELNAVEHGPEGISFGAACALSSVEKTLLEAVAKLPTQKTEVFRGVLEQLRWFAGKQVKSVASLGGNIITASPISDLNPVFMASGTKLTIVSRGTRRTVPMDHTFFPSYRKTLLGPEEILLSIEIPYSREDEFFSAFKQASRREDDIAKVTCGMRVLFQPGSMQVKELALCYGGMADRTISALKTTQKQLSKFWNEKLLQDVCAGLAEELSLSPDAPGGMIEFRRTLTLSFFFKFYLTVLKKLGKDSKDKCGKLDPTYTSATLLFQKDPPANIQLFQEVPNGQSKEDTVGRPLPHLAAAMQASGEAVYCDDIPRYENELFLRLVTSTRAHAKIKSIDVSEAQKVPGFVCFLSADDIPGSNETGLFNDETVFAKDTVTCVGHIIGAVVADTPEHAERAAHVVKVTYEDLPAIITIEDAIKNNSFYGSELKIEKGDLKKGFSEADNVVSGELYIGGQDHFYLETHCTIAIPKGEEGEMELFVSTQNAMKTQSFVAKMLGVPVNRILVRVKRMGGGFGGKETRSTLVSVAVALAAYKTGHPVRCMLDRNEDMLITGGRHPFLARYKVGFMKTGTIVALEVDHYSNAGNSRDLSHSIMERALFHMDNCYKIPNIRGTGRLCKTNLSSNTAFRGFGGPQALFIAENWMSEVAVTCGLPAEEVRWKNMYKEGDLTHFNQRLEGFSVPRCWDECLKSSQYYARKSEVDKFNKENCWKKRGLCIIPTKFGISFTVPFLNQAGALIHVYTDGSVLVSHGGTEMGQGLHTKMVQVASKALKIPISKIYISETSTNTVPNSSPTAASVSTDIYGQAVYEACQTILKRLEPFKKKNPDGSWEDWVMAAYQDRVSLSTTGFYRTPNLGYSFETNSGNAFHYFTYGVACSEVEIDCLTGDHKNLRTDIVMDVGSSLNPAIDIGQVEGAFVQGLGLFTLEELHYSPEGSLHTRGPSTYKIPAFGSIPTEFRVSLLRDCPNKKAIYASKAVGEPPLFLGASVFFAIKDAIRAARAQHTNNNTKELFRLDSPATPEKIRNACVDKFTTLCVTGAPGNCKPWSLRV

IC50: 8.12 ± 0.27 µM
SMILES: CC(=O)c1cc(O)ccc1O [DHAP]
